Results taken from patent EP0744402B1, “POTASSIUM SALT OF BIPHENYLMETHANE DERIVATIVE AND MEDICINE CONTAINING THE SAME” (priority 1994, dated 1995).
Counter-ions that a name gives are not always drawn.

How the values were obtained:
[1] = Measurement of bioavailability in rat; type: in vivo; conditions: SD male rats, fasted overnight, 3 mg/kg intravenously (physiological saline) and orally (0.5% carboxymethyl cellulose), from plasma AUC by HPLC
Procedure: Measurement of bioavailability in rat
SD Male rats of 6 weeks old (5 rats a group) were fasted overnight. The test compound was then administered to each of the rats at 3 mg/kg intravenously after dissolved in physiological saline and orally after suspended in 0.5% carboxymethyl cellulose, respectively. After administration, blood was collected periodically. From the blood so collected, plasma was separated by centrifugation. The test compound in the plasma was determined by high-performance liquid chromatography and based on it, areas under concentration (AUC) in intravenous administration and oral administration were found respectively. Bioavailability (BA) of the test compound for the rats was calculated in accordance with the following equation.

angiotensin II = experiment: Inhibition of the angiotensin II-induced blood pressure increase in conscious normotensive rats after oral administration (invasive); type: in vivo, rat; conditions: male SD rats; angiotensin II intravenously 0.1 µg/kg; test compound orally 1.0 mg/kg in 0.5% carboxymethyl cellulose
Procedure: On the day before the test, a cannula for the measurement of blood pressure and another cannula for the administration of a solution of angiotensin II (AII) in physiological saline (intravenously administered at 0.1 µg/kg) were inserted into the right femoral artery and the right femoral vein of each of the male SD rats (body weight: 200-350 g), respectively, under anesthesia. The rats were maintained on food and water ad libitum until immediately before the test was started. On the testing day, the former cannula so inserted was connected to a blood pressure transducer and the mean blood pressure was recorded on a polygraph. The solution of AII in physiological saline was then intravenously administered to each of the rats to raise its blood pressure. The blood-pressure raising response was repeated several times. […] In accordance with the following equation, an inhibitory rate (%) of blood pressure increase was calculated from the blood pressure increases before and after the administration of the test compound.

renal hypertensive rats = experiment: Antihypertensive action on renal hypertensive rats (invasive); type: in vivo, rat; conditions: male SD renal hypertensive rats, mean blood pressure, orally 0.3 mg/kg, suspended in 0.5% carboxymethyl cellulose
From the text: Antihypertensive action on renal hypertensive rats (invasive)
Renal hypertensive rats were each prepared by constricting the left renal artery of a male SD rat (age: 6 weeks old, body weight: 190-220 g) with a silver clip (inner diameter: 0.017 inch) under anesthesia. Antihypertensive action was studied employing the rats whose mean blood pressure arose to 150 mmHg or higher in 4-8 weeks after the constriction of the renal artery. On the day before the test, a cannula for measure of blood pressure was inserted into the femoral artery of each of the renal hypertensive rats under anesthesia and was allowed to remain in the artery. The rats were maintained on food and water ad libitum until immediately before the test was started. The cannula so inserted was connected to a blood pressure transducer and a mean blood pressure was recorded on a polygraph. After the blood pressure became stable, the test compound which was suspended in 0.5% carboxymethyl cellulose was orally administered to each of the rats at 0.3 mg/kg. In accordance with the following equation, a decreased rate of blood pressure (%) was calculated from the blood pressure values before and after the administration of the test compound.

Row | SMILES | BA (%) [1] [%] | Inhibition of blood pressure increase (%) (angiotensin II) | Rate of decrease in blood pressure (renal hypertensive rats) [%] | Rate of decrease in blood pressure (renal hypertensive rats; 0.3 mg/kg) [%]
1 | CCc1nn(Cc2ccc(-c3ccccc3-c3nnn[nH]3)cc2)c(=NC(=O)C2=C(C(=O)O)CCC2)s1 [Compound (2), 2-[[5-Ethyl-3-[2'-(1H-tetrazol-5-yl)biphenyl-4-yl]methyl-1,3,4-thiadiazolin-2-ylidene]aminocarbonyl]-1-cyclopentenecarboxylic acid] | 12.0 | 54.2 | 10.8 | –
2 | CCc1nn(Cc2ccc(-c3ccccc3-c3nnn[nH]3)cc2)c(=NC(=O)C2=C(C(=O)O)CCC2)s1 [Compound A, dipotassium 2-[[5-ethyl-3-[2'-(1H-tetrazol-5-yl)biphenyl-4-yl]methyl-1,3,4-thiadiazolin-2-ylidene]aminocarbonyl]-1-cyclopentenecarboxylate] | 42.8 | 84.6 | – | 23.0
3 | CCc1nn(Cc2ccc(-c3ccccc3-c3nnn[nH]3)cc2)c(=NC(=O)C2=C(C(=O)[O-])CCC2)s1.[K+] [Compound B, monopotassium 2-[[5-ethyl-3-[2' -(1H-tetrazol-5-yl)biphenyl-4-yl]methyl-1,3,4-thiadiazolin-2-ylidene]aminocarbonyl]-1-cyclopentenecarboxylate] | – | – | 19.8 | –
4 | CCc1nn(Cc2ccc(-c3ccccc3-c3nn[nH]n3)cc2)c(=NC(=O)C2=C(C(=O)O)CCC2)s1 [Control 2Na salt, reference compound] | – | – | – | 12.9
